Results on three compounds are retold here after patent publication EP0009702A1, “A phenylalkylaminoethylsalicylamide, its preparation and pharmaceutical compositions containing it” (SCHERING CORPORATION, priority 1978, dated 1980).

For data set [1], the system named is β-adrenergic receptors. The conditions noted are these: as disclosed in British patent specifications 1,541,932 and 1,541,933; cited from earlier work.
The subject of another data set is a-adrenergic receptors. Description: α-adrenergic blocking potency, animal tests. It is filed as in vivo. The conditions noted are these: relative to labetalol (assigned value 1.0). An excerpt: (§1) The a- and β-blocking activities discussed earlier in this specification can be determined by known methods, e.g. by those of Farmer et.al., Brit. J. Pharm., 45, 660 (1972); Robson, J. Pharm. Exp. Therap., 175, 157 (1970), and Levy, Arch. Int. Pharmacodyn. Ther., 204,. 143 (197-3).

Data set [2] relates to β-adrenergic receptors. Description: β-adrenergic blocking potency, animal tests. It is filed as in vivo. The conditions noted are these: for β-blocking potency: relative to labetalol (assigned value 1.0), animal tests.
From the text: as §1

The nature of data set [3]: antihypertensive activity, laboratory tests, oral dosing. It is filed as in vivo. The conditions noted are these: result in words.
The nature of data set [4]: direct peripheral vasodilation activity. The following applies: compared with labetalol. It is filed as in vivo.
Data set [5] can be described thus: toxicity at therapeutic doses. It is filed as in vivo.

SMILES strings stand for the structures.

On to `CC(CCc1ccccc1)NCC(O)c1ccc(O)c(C(N)=O)c1` (racemic) [diastereoisomer A], for which, in the data set with β-adrenergic receptors [1], the β-adrenergic blocking activity result is on record as “strongly reduced”.
Take `C[C@H](CCc1ccccc1)NC[C@H](O)c1ccc(O)c(C(N)=O)c1` (racemic) [diastereoisomer B, reference compound]: the a-blocking potency result in the data set with a-adrenergic receptors was “half”. In addition, in the data set with β-adrenergic receptors [2], the β-blocking potency result is “not significantly different from that of labetalol”.
Consider `C[C@H](CCc1ccccc1)NC[C@H](O)c1ccc(O)c(C(N)=O)c1` (single isomer, unassigned; isomer 5) [(R,R) optical isomer], for which, in data set [3], the antihypertensive activity entry was “potent antihypertensive activity”. Also, the “direct peripheral vasodilation activity” value in data set [4] was “greater direct peripheral vasodilation activity than labetalol”. Further, the a-blocking potency entry in the data set with a-adrenergic receptors was “about one third”. In data set [5], the toxicity result is recorded as “substantially non-toxic”. Further, in the data set on β-adrenergic receptors [2] (compared with labetalol), the “ratio of the β-adrenergic blocking potency to the a-adrenergic blocking potency” value was “greatly and unexpectedly increased”. In the data set on β-adrenergic receptors [2], the β-blocking potency entry is recorded as “about twelve times”.
